PubChem BioAssay (NCI)
“And” between values parts separate entries of the source, which are not always exact repeats. Equal values may be shown once.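 In this assay, cells in 96-well plates receive the compound at five concentrations for 48 hours. Endpoints are linearly interpolated between the surrounding concentrations. Here, GI50 denotes the concentration required for 50% inhibition of growth. TGI: total growth inhibition.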

Key:
Assay in all cases: growth of human tumour cells (NCI), 48 h
[1] = test system: U251 CNS
[2] = test system: 786-0 renal
[3] = test system: M14 melanoma
[4] = test system: HCT-116 colon
[5] = test system: NCI-H460 lung
[6] = test system: SK-MEL-2 melanoma
[7] = test system: MOLT-4 leukemia
[8] = test system: SN12C renal
[9] = test system: RXF 393 renal
[10] = test system: CAKI-1 renal

SMILES	TGI [1]	TGI [2]	TGI [3]	TGI [4]	TGI [5]	TGI [6]	TGI [7]	TGI [8]	TGI [9]	TGI [10]	GI50 [1]	GI50 [2]	GI50 [3]	GI50 [4]	GI50 [5]	GI50 [6]	GI50 [7]	GI50 [8]	GI50 [9]	GI50 [10]
CCCCCCCCCCCC1CC(=O)NCCCN(C)CCCCN(C)CCCN1C (stereo not given)	3.04 µM	2.89 µM	3.24 µM	2.89 µM	2.66 µM	3.16 µM	7.73 µM	3.14 µM	3.02 µM	3.54 µM										
CC(C)(C)NCC(COc1ccc([N+](=O)[O-])cc1)OP(c1ccccc1)c1ccccc1 (stereo not given)	> 100 µM	> 100 µM	> 100 µM	> 100 µM	> 100 µM	> 100 µM	49.6 µM	> 100 µM	> 100 µM	> 100 µM										
COc1ccc(-c2c(C3=NCCCN3)nnn2-c2ccc([N+](=O)[O-])cc2)cc1	> 100 µM	> 100 µM	> 100 µM	> 100 µM	> 100 µM	> 100 µM	> 100 µM	> 100 µM	> 100 µM	> 100 µM										
CN1c2ccccc2SC2C(c3ccccc3)=NOC21 (stereo not given)	> 100 µM	> 100 µM	> 100 µM	60.7 µM	> 100 µM	73.9 µM	> 100 µM	> 100 µM	> 100 µM	> 100 µM										
CC(C)[O-].CC(C)[O-].CN(CCN(C)Cc1cc(F)cc(F)c1[O-])Cc1cc(F)cc(F)c1[O-].[Ti+4]	1.83 µM	5.7 µM	2.3 µM	4.86 µM	2.83 µM	4.95 µM	8.47 µM	7.31 µM	1.31 µM	6.45 µM	0.438 µM	1.48 µM	0.638 µM	0.792 µM	0.575 µM	1.52 µM	0.9 µM	1.53 µM	0.357 µM	0.874 µM
CC(=Nc1ccc(S(N)(=O)=O)cc1)c1c(O)[nH]c2ccccc12	> 25 µM	> 25 µM	> 25 µM	> 25 µM	> 25 µM	> 25 µM	> 25 µM	> 25 µM	> 25 µM	> 25 µM	> 25 µM	> 25 µM	> 25 µM	> 22.8 µM	> 23.9 µM	> 25 µM	> 25 µM	> 25 µM	> 25 µM	17.1 µM
[2H]c1nc(=Nc2cc(NC(=O)C=C)c(N(C)CCN(C)C)cc2OC)[nH]c(-c2cn(C([2H])([2H])[2H])c3ccccc23)c1[2H]	3.6 µM	2.68 µM	3.23 µM	2.83 µM	4.37 µM	3.65 µM	2.86 µM	2.71 µM	3.2 µM	1.89 µM	1.76 µM	1.34 µM	1.67 µM	1.48 µM	1.9 µM	1.73 µM	1.14 µM	1.18 µM	1.4 µM	0.503 µM
CCOC(OC1=C(C#N)CCCC1)C(CC)[Se]c1ccccc1 (stereo not given)	44.3 µM	31.6 µM	> 100 µM	28.6 µM	34.2 µM	80.8 µM	55.8 µM	36.9 µM	31.1 µM	> 100 µM										
Cc1ccc(NC(=O)/C(Cc2nc3ccc([N+](=O)[O-])cc3[nH]c2=O)=N\NC(=O)C[n+]2ccccc2)c(C)c1	> 100 µM	79.9 µM	> 100 µM	> 100 µM	> 100 µM	> 100 µM	88 µM	98.1 µM	73.1 µM	> 100 µM										
O=C1/C(=C/c2ccc([N+](=O)[O-])cc2)COc2ccc(O)cc21	4.13 µM	11.7 µM	> 100 µM	3.43 µM	> 100 µM	> 100 µM	37.6 µM	6.85 µM	17.7 µM	19.3 µM	1.99 µM	3.05 µM	7.78 µM	1.67 µM	9.03 µM	73 µM	3.11 µM	2.22 µM	2.45 µM	3.7 µM
COc1ccc(F)c(F)c1C(=O)c1cnc(NC2CCN(S(C)(=O)=O)CC2)nc1N	> 100 µM	> 27 µM	9.66 µM and > 10 µM	> 100 µM	> 100 µM	2.96 µM and 3.48 µM	> 100 µM	> 100 µM	1.48 µM and 0.423 µM	> 100 µM	0.484 µM and 0.371 µM	0.666 µM and 0.388 µM	1.48 µM and 0.917 µM	0.257 µM and 0.183 µM	0.165 µM and 0.117 µM	1.07 µM and 1.15 µM	0.39 µM and 0.321 µM	0.94 µM and 0.477 µM	0.286 µM and 0.149 µM	1.05 µM and 0.232 µM
Cc1ccc(-n2nc(C(C)(C)C)cc2NC(=O)NCc2cc(F)ccc2Oc2ccc3c(cnn3CCO)c2)cc1	> 100 µM	> 100 µM	> 28.5 µM	> 36.3 µM	> 59.7 µM	> 10 µM and 13 µM	> 10 µM and 5.23 µM	> 100 µM	> 10 µM and 23.7 µM	> 100 µM	> 10 µM and 7.01 µM	> 10 µM and 8.58 µM	0.649 µM and 1.31 µM	2.34 µM and 2.46 µM	> 10 µM and 4.85 µM	2.98 µM and 4.42 µM	9.91 µM and 2.05 µM	> 10 µM and 6.27 µM	7.04 µM and 4.64 µM	9.61 µM and 6.5 µM
COc1cc2nc(-c3ccc(C(F)(F)F)cc3)cc(OCCCN3CCCC3)c2cc1OC	18.8 µM	6.03 µM	1.05 µM	4.29 µM	19.6 µM	11.2 µM	5.09 µM	> 42.7 µM	3.85 µM	14 µM	1.31 µM	1.88 µM	0.303 µM	0.333 µM	0.597 µM	3.41 µM	1.42 µM	0.558 µM	0.448 µM	0.245 µM
CC1(C)CC(=O)C(CC2C(=O)c3ccccc3C2=O)C(=O)C1	> 100 µM	> 100 µM	> 100 µM	> 100 µM	> 100 µM	> 100 µM	> 100 µM	> 100 µM	> 100 µM	> 100 µM										
COC(=O)C1C(=O)N(CCc2c[nH]c3ccccc23)C[C@@H]2CCC(=O)C[C@H]12 (stereo not given in full)	> 100 µM	> 100 µM	> 100 µM	> 100 µM	> 100 µM	> 100 µM	> 100 µM	> 100 µM	> 100 µM	> 100 µM										
